In US20140072657A1, “NOVEL PHARMACEUTICAL FORMULATION” (priority 2011, published 2014):

Columns and labels:
Periodontitis = Periodontitis cases: sites with CPITN code 3+4 / code 4 pockets before and after the composition; format: in vivo, human
Excerpt: As indicator of periodontal status pocket depth is used according to Treatment Need codes 3 and 4 in Community Periodontal Index—Treatment Needs (CPITN). This code is applied to every treated tooth or implant.
Periodontal pockets: shallow (Code 3: 4-5 mrn) and deep (Code 4: 6 mm or more).
(§1) Initial motivation and cleaning instruction, supragingival biofilm reduction by trimestrially repeated brushing in CHX solution 0.07 wt % for two weeks by the patient and tooth and pocket cleaning by ultrasonic scaling as well as covering exposed root dentine by adhesive fillings to hide protein coaggregational binding sites for anaerobic microbial species (A.a., P.g., T.d.) was administered. […]

[1] = test system: Gingivitis, edema, mucosal inflammation; assay: Clinical observation of oral inflammation, edema and regeneration (gingivitis, dentition difficilis, healing cap, inflamed extraction socket); format: in vivo, human
Description: as §1

[2] = Case 11, 4000 I.E. systemically 2 months
[3] = cases 10, 11, systemic application over 2 months

Compound: C=C1CC[C@H](O)C/C1=C/C=C1\CCC[C@]2(C)[C@@H]([C@H](C)CCCC(C)C)CC[C@@H]12 [vit D3, vitamin D3]
- Code 4: severe (Periodontitis; Case 11, 18 sites/3, 4000 I.E. systemically 2 months, before 22): 22
- edema (Periodontitis; [2]): no edema
- pocket regeneration code 3 (Periodontitis; [2]): +33%
- sensitivity (Periodontitis; [2]): no sensitivity,
- CPITN Code 3 + 4 Nr. (Periodontitis; Case 11, Periodontitis, Periimplantitis, 18 sites/3, 4000 I.E. systemically 2 months, before 61): 38
- edema, inflammation and attachment loss (Periodontitis; [3]): stop of edema, inflammation and attachment loss
- regeneration in code 3 CPITN pockets (Periodontitis; [3]): some regeneration
- edema ([1]; Case 10, 4000 I.E. systemically 2 months): no edema
- pockets ([1]; Case 10, Gingivitis, Mc Calls edema, 4000 I.E. systemically 2 months): Shallow pockets,
